Experimental data: US20100216875A1, “METHODS OF TREATING ALZHEIMER'S DISEASE” (priority 2006, published 2010)

Legend:
[1] = test system: brain and synaptosomal Aβ; test: guinea pig brain and synaptosome Aβ by ELISA after icv infusion; type: in vivo; conditions: icv 0.15 mg/kg/day
Text: Guinea pig (gp) is a natural, non-transgenic model of human APP processing gpAPP is 98% homologous to human APP, contains the human wild-type β-secretase site, and gpAβ is identical to human Aβ. Brain synaptosome preparations are enriched with neuronal synapses which are the sites at which regulated secretion occurs and are an in vivo measure of regulated secretory secretion CTFβ is an APP fragment that results from p-secretase cleavage of APP and reflects in vivo β-secretase activity. […] E64d was icy administered into gp brains (0.15 mg/kg/day) for 7 or 30 days. […] In FIG. 5b, total synaptosomal Aβ is shown.
CA074Me (0.15 mg/kg/day) was icy infused into gp brains with mini pumps. […] An equal reduction of Aβ40 and Aβ42 is consistent with the inhibitor affecting p-secretase activity
At the end of the treatment, the brains were isolated and extracted with guanidine hydrochloride and Aβ40 and Aβ42 levels were determined using ELISA.
Cathepsin B inhibitors were administered directly into the brain by icy infusion with minipumps in time course studies at different doses. Guinea pigs were infused with compounds using Alzet pumps (2.5 μl/hr, with compounds at 1 mg/ml in saline) for 7 and 30 days, and other times. This initial dose of compound was selected because E64d and CA074Me are effective at this dose. Each treatment group consisted of eight to ten guinea pigs, including the vehicle control group.
At the end of each experiment, animals were sacrificed and half the brain was taken for ELISA measurement of Aβ40 and Aβ42 levels. The other half was isolated for synaptosome preparations for ELISA measurement of Aβ40 and Aβ42 content in nerve terminals. Synaptosomes were prepared by homogenization in isotonic sucrose (320 mM), pH 7.4, 1 mM EDTA, 0.25 mM dithiothreitol, and 30 U/MI RNAse inhibitor. The homogenate was centrifuged at 1000×g for 10 minutes. The supernatant was loaded on a Sucrose-Percoll discontinuous gradient and centrifuged at 32,000×g for 5 minutes (80) Enriched synaptosomes were washed in PBS, and centrifuged at 12,000×g for 4 minutes. The supernatant was removed, and the synaptosome containing pellet was resuspended in 50% OptiPrep (Accurate Chemica. Westbury, N.Y.), loaded on an OptiPrep discontinuous flotation gradient (9, 12.5, 25, and 35%) and centrifuged at 10,000×g for 20 minutes. The synaptosomes were obtained at the […]
For quantitative analysis of Aβ peptides, an enzyme-linked immunosorbent assay (ELISA) was used to measure the levels of total Aβ, Aβtotal, Aβ40 and Aβ42 in the brains and synaptosomes of guinea pigs (Biosource International, Camarillo, Calif.) Aβtotal, Aβ40, Aβ42 was extracted from guinea pig brains or from synaptosomes by guanidine hydrochloride and quantified as described by the manufacturer. This assay extracted the total Aβ peptide from the brain (both soluble and aggregated). Tissue samples were homogenized in 5M guanidine buffer (5M guanidine HCl in 50 mM Tris-Cl, pH 8.3; Sigma-Aldrich, St. Louis, Mo.) at 1:10 w/v dilution. Homogenates were agitated at room temperature for 3-4 hours, then stored at −20° C. The day before running the ELISA, the tissue samples were diluted further 1:10 to provide a final guanidine concentration of 0.5M. These diluted homogenates were spun down at 14,000 rpm for 20 minutes at 4° C. and supernatants used for Aβ determination by ELISA (84-86). Brain and synaptosome extracts were assayed as diluted in 0.5M guanidine. In addition, Aβ40 and Aβ42 were assayed using ELISA using 6E10 as the capture antibody and Rb209 and Rb321 as reporter antibodies, respectively, for Aβ40 and Aβ42 (96).

[2] = test system: transgenic APPIn mice (London mutant human APP); test: brain Aβ and amyloid plaque load in transgenic APPIn mice; type: in vivo, mouse; conditions: icv 0.015 mg/kg/day, 28 days; for reduction of amyloid plaque load: cortex
Procedure: Transgenic mice expressing human APP containing the London mutation (APPIn) mimic AD function and pathology in that they are cognitively deficient, have brain amyloid plaque and elevated Aβ (8). […] CA074Me or E64d were administered by icy infusion in brains (0.015 mg/kg/day) for 28 days (8 animals per treatment group).
APPIn mice express the clinical mutant human APP (APP[V717I]) which has a mutation at the γ-secretase site that results in the overproduction of Aβ and the behavioral and neuropathology that develop an AD phenotype (8). These mice show early stage deficits in cognition and memory at 3-9 months age. At the later age of 8-12 months, amyloid plaques have developed in brains of these mice, with increased levels of Aβ40 and Aβ42 peptides in the brain. […] Thus, this AD mouse model allows testing of select reversible compounds to improve cognition and to reduce brain levels of Aβ peptides and amyloid plaques.
Direct icy infusion into the brain was the first route of administration to be tested to establish the effectiveness of reversible inhibitors in the brain to provide cognitive improvement, and reduction in brain Aβ peptides and amyloid plaques. Icy infusion was performed as described above for the irreversible inhibitors with use of the Alzet minipump. The initial dose utilized was the same dosage used for E64d and CA074Me in the APPIn mice or APPswe/In mice Administration of these compounds began at approximately 1-2 months of age and infusion was conducted for periods of 1, 2, 4, and 8 months (or other time periods). Administration of the select reversible compounds by direct icy infusion into mouse brains was conducted initially at 0.025 μl/hr of 1 mg/ml, other doses may be examined based on results with the first dose. Each time point was conducted with about 8-10 animals and 8-10 normal control animals (age-matched) (or greater number of mice per treatment group, if necessary, for appropriate statistical evaluation). At the end of each of these infusion periods, cognitive testing and assessment of Aβ peptide levels with plaque pathology was evaluated. At each of these time points, mice were tested for cognition, and then sacrificed for evaluation of Aβ and neuropathology in the brain
After behavioral testing was completed, the mice were sacrificed for analyses of Aβ40 and Aβ42 peptide levels, and neuropathology. One half brain (one hemisphere) was utilized to prepare brain extracts for measurement of Aβ40 and Aβ42 levels by ELISA assays, and the other half brain was used for neuropathological evaluation. Procedures for preparation of brain extracts and ELISA assays for Aβ peptides are those used for analyses of guinea pig brains
Aβ-related neuropathology was assessed in cortex and hippocampus of brains. The relative extent of Aβ immunoreactivity in neurons and glial cells was assessed. Immunostaining for Aβ was conducted as described previously (58) Aβ-related neuropathology was assessed in cortex and hippocampus of brains, as well as other regions of the brain as controls. Brain tissue was fixed in 4% paraformaldehyde overnight, and then processed to paraffin. Serial sections were obtained, deparaffinized and washed in TBS buffer. Each section was blocked with appropriate normal serum (mouse or rabbit), and subjected to primary anti-Aβ antibody for detection of amyloid deposits. Sections were then stained with DAB ([…]) with the Vector ABC Elite kit (Vector Laboratories). Amyloid areas were imaged with microscopic computer-assisted analysis system using the NIH Image Analysis Software.

[3] = target: aspartyl protease, BACE1 (Homo sapiens, UniProt P56817); test: effect on BACE1; type: biochemical
Sequence of aspartyl protease, BACE1 (P56817 46-501): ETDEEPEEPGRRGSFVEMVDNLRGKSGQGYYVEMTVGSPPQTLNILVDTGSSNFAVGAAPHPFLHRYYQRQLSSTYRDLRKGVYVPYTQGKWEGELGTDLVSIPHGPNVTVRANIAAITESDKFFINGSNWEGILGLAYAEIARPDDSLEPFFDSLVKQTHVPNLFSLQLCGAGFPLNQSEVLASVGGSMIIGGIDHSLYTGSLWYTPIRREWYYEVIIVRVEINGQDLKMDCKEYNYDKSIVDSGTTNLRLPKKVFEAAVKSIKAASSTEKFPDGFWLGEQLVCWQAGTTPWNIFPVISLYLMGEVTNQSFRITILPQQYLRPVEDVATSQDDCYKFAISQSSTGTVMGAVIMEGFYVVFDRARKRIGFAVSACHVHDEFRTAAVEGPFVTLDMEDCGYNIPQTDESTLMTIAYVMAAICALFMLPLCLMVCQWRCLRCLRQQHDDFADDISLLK

CCOC(=O)[C@H]1O[C@@H]1C(=O)N[C@@H](CC(C)C)C(=O)NCCC(C)C [E64d]
reduction of total Aβ in brain extracts ([1]; 7 days): 30%
reduction of total synaptosomal Aβ ([1]; 7 days): 27%
reduction of total Aβ in brain extracts ([1]; 30 days): 50%
reduction of total synaptosomal Aβ ([1]; 30 days): 50%
reduction of brain Aβ ([1]; duration not stated): 50%
decrease in brain Aβ40 [2]: 50%
decrease in brain Aβ42 [2]: 50%
reduction of amyloid plaque load [2]: significantly reduce amyloid load
effect on BACE1 [3]: do not affect

CCCNC(=O)[C@H]1O[C@@H]1C(=O)N[C@H](C(=O)N1CCC[C@H]1C(=O)OC)[C@@H](C)CC [CA074Me]
reduction of Aβ40 in brain extracts ([1]; 7 days): 50%
reduction of Aβ42 in brain extracts ([1]; 7 days): 50%
reduction of total Aβ in brain extracts ([1]; 7 days): 50%
reduction of total synaptosomal Aβ ([1]; 7 days): 45%
reduction of Aβ40 in brain extracts ([1]; 30 days): 50%
reduction of Aβ42 in brain extracts ([1]; 30 days): 50%
reduction of total Aβ in brain extracts ([1]; 30 days): 60%
reduction of total synaptosomal Aβ ([1]; 30 days): 50%
reduction of Aβ40 in the brain ([1]; duration not stated): 50-60%
reduction of Aβ42 in the brain ([1]; duration not stated): 50-60%
decrease in brain Aβ40 [2]: 50%
decrease in brain Aβ42 [2]: 50%
reduction of amyloid plaque load [2]: significantly reduce amyloid load
effect on BACE1 [3]: do not affect
